{
  "source": "patent US20060003399A1",
  "about": "“High throughput actin polymerization assay” (Cytokinetics, Inc., priority 2004, published 2006)",
  "test_system": "PMA-treated THP-1 cells",
  "assay": "Macrophage podosome formation assay",
  "type": "cell-based, human",
  "settings": "FIG. 13",
  "protocol": "Positive hits from the in vitro screening assays are tested for effects on macrophage podosome formation. Macrophages express Arp2/3 and WASP, the latter of which is required for podosome formation. A typical cell-based secondary assay of this type includes the human monocytic cell ine THP-1, which undergoes macrophage differentiation and podosome formation in response to exposure to the phorbol ester, phorbol-12-myristate-13-acetate (PMA) (50 nM). A nuclear stain and an actin stain are used to detect and quantify the number of podosomes/cell in the absence or presence of positive hits from the in vitro screening assays. An example of the use of this assay is provided in Example 14 and is illustrated in FIG. 13.\nIn this assay, positive hits from the in vitro screening assays are tested for effects on macrophage podosome formation. […] A nuclear stain and an actin stain are used to quantify the number of podosomes/cell in a culture of differentiated THP-1 cells in the absence or presence of positive hits from the in vitro screening assays. […]\nPodosomes in the THP-1 cells were visualized using a nuclear stain and an actin stain as follows. […] The fraction of THP-1 cells positive for podosomes was quantified using Image Express software (Molecular Devices, Inc.). […]",
  "data": [
    {"compound": "COC(=O)Nc1nc2ccc(C(=O)c3cccs3)cc2[nH]1", "note": "[nocodazole]", "values": [
      {"measurement": "podosome formation (fraction of THP-1 cells positive for podosomes), in words", "result": "prevented podosome formation in PMA-treated THP-1 cells in a dose-dependent manner"}
    ]}
  ]
}
